“Also recorded” adds a separate entry of the source.
Columns and labels:
Assay type in all cases: in vivo, mouse
[1] = system: ApoE-deficient mice; experiment: Quantitative PCR of transcript levels in the abdominal aorta; settings: 30 mg/kg/day, 25 weeks, vs control
Description: (§1) Four cohorts of mice were used in these studies (FIGS. 8A and 9A). Cohorts 1 and 2 were devoted to the in vivo and ex vivo characterization of TNAP-associated plaque calcification. 6-week-old ApoE-deficient male mice were received at the animal facility and placed in conventional cages with 5 mice per cage. Mice were maintained on a 12-hrs light-dark cycle (7:00 am-7:00 pm) and were supplied with food and water ad libitum. From 10 weeks of age, they were fed ad libitum with a high fat diet (HFD, D12108C, Research Diets, New Brunswick, USA) containing 40% fat (kcal) and 1.25% cholesterol (weight). In cohort 1, 8 mice were sacrificed every 2 weeks between weeks 17 to 31, for histological and molecular analyses. Total body weight was measured weekly after starting the HFD. The sacrifice was done after anesthesia with isoflurane and intracardiac blood puncture by CO2 inhalation. Tissues were harvested as described below. The abdominal aorta was used for quantitative polymerase chain reaction (PCR) analyses. Mice from cohort 2 were used to analyze aorta calcification with ^18F—NaF μPET and μCT and to compare the in vivo data with the ex vivo results obtained in cohort 1. Animals were transferred from the animal facility to the Cermep imaging platform. Cohorts 3 and 4 were used to determine in vivo and ex vivo the impact of TNAP inhibition on the vasculature, liver, bones, and kidneys. According to the results obtained in cohorts 1 and 2, TNAP inhibitor SBI-425 (30 mg/kg/day, formulated as a food admixture in the HFD) was administered in a preventive manner from 10 weeks of age. Treatment was stopped at 25 weeks or 31 weeks of age. Plaque calcification was analyzed at 25 weeks, and possible side effects of TNAP inhibition were explored in mice aged 31 weeks. Mice in cohort 3 (2 groups of 13 mice) were used for ex vivo analysis, and mice in cohort 4 (2 groups of 12 mice) for in vivo imaging and ex vivo analyses.
Mouse tissues: total RNAs were extracted from grinded abdominal aorta with the NucleoSpin RNA II kit (Macherey-Nagel) following the manufacturers' protocol. The quantity and quality of RNA were determined using a NanoDrop. RNA (1 μg) was retro-transcribed into cDNA with Superscript II reverse transcriptase (Life Technologies). PCR analysis was conducted using SYBR green Supermix (Biorad) on the iCycler Real-Time Detection system (Biorad). Fold change in mRNA expression was calculated using the 2^−Δcq method by the CFX Manager software (Biorad). Data were normalized by 3 housekeeping genes (HPRT, Actin and Rpl13a) levels.

[2] = system: ApoE-deficient mice; experiment: Serum analyses (cholesterol, triglycerides, bile acids, IL-6, haptoglobin, glucose, LPS)
Description: as §1
After overnight fasting, blood was collected from mice by cardiac puncture under anesthesia with isoflurane. Serum was obtained through centrifugation of the blood for 15 min at 1,500 g at 4° C. and stored at −80° C. before analysis. Concentration of total cholesterol and triglycerides were measured using a colorimetric (MAK043, Sigma) and a fluorimetric assay (MAK266, Sigma), respectively. Total bile acids were assayed with a commercial enzyme-based colorimetric kit (Abcam Ab239702). Serum IL-6 and haptoglobin levels were determined using the commercially available ELISA kits (Fischer Scientific 10110623 and Abcam 157714, respectively). The alkaline phosphatase activity assay was performed in a 96-well plate. Briefly, sera were mixed with a concentrated buffer at a ratio of 2.85:1 (vol/vol) in order to get final concentration of 0.56 M 2-amino-2-methyl-1-propanol buffer pH 10.5, 1 mM MgCl2 and 10 mM p-nitrophenylphosphate. Absorbance was acquired for 5 min at 405 nm (Tecan plate reader). The slope was calculated to determine TNAP activity levels in each sample and normalized to protein amounts measured with the BCA protein assay (Pierce).

[3] = system: ApoE-deficient mice; experiment: Tolerability: mortality and body weight; settings: 30 mg/kg/day, treatment up to 21 weeks
Description: as §1, with “Cohorts 3 and 4 were used to determine in vivo and ex vivo the impact of TNAP inhibition on the vasculature, liver, bones, and kidneys. According to the results obtained in cohorts 1 and 2, TNAP inhibitor SBI-425 (30 mg/kg/day, formulated as a food admixture in the HFD) was administered in a preventive manner from 10 weeks of age. Treatment was stopped at 25 weeks or 31 weeks of age.” left out, “Mice in cohort 3 (2 groups of 13 mice) were used for ex vivo analysis, and mice in cohort 4 (2 groups of 12 mice) for in vivo imaging and ex vivo analyses.” left out

[4] = system: ApoE-deficient mice; experiment: Bone architecture by micro-CT of the femur; settings: 30 mg/kg/day, treatment up to 21 weeks (31 weeks of age)
Description: as §1, with “Cohorts 3 and 4 were used to determine in vivo and ex vivo the impact of TNAP inhibition on the vasculature, liver, bones, and kidneys. According to the results obtained in cohorts 1 and 2, TNAP inhibitor SBI-425 (30 mg/kg/day, formulated as a food admixture in the HFD) was administered in a preventive manner from 10 weeks of age. Treatment was stopped at 25 weeks or 31 weeks of age.” left out, “Mice in cohort 3 (2 groups of 13 mice) were used for ex vivo analysis, and mice in cohort 4 (2 groups of 12 mice) for in vivo imaging and ex vivo analyses.” left out

[5] = system: ApoE-deficient mice; experiment: Liver content of cholesterol, triglycerides, bile acids, hydroxyproline; settings: 30 mg/kg/day, 25 weeks, vs control
Description: as §1
For the determination of cholesterol, triglycerides, and total bile acids in liver, 40-mg pieces of liver were homogenized in 1 mL of 5% NP40 solution in a dounce homogenizer. The hydrophobic components were extracted twice at 80° C. for 5 minutes. The samples were centrifuged, and the supernatants were assayed for cholesterol, triglycerides and bile acids with the same kits used for blood. In order to quantify hydroxyproline, 100 mg pieces of liver were homogenized in 1 mL of pure water in a dounce homogenizer and a perchlorate-free kit from Sigma was used (MAK357).

[6] = system: ApoE-deficient mice; experiment: Quantitative PCR of transcript levels in the liver; settings: 30 mg/kg/day, 25 weeks, vs control
[7] = ApoE-deficient mice, 30 mg/kg/day, 25 weeks, fasting, vs control
[8] = ApoE-deficient mice, 30 mg/kg/day, 25 weeks, vs control

In the case of COc1ccc(Cl)cc1S(=O)(=O)Nc1cncc(C(N)=O)c1 [SBI-425], the “Acan transcript level (chondrocyte marker), abdominal aorta” value [1] is reported as “not accompanied by reduced levels”, the “Alpl transcript level (chondrocyte marker), abdominal aorta” value [1] is reported as “not accompanied by reduced levels” and the “Cd68 transcript level (inflammatory marker), abdominal aorta” value [1] is reported as “significantly decreased”. For the same compound, the “Il6 transcript level (inflammatory marker), abdominal aorta” value [1] was “significantly decreased”, the “Il8 transcript level (inflammatory marker), abdominal aorta” value [1] was “significantly decreased” and the “Opn transcript level (inflammatory marker), abdominal aorta” value [1] was “significantly decreased”. The “Rankl transcript level (inflammatory marker), abdominal aorta” value [1] was “significantly decreased”, the “Runx2 transcript level (chondrocyte marker), abdominal aorta” value [1] was “not accompanied by reduced levels” and the “Sox9 transcript level (chondrocyte marker), abdominal aorta” value [1] was “not accompanied by reduced levels”. The “serum levels of cholesterol” value [2, 7] was “significantly decreased”, the “serum levels of triglycerides (TGs)” value [2, 7] was “significantly decreased” and the fasting glycemia [2, 8] was “did not modulate”. For the same compound, the “serum IL-6 levels” value [2, 8] was “reduced serum IL-6 levels, although not significantly”, the “serum bile acids levels” value [2, 8] was “did not change” and the serum haptoglobin levels [2, 8] was “nor changed”. For the same compound, the systemic inflammation ([2]; mouse experiments, administration for several months) was “did not significantly change”, the body weight [3] was “no effect; also recorded: did not significantly change” and the mortality [3] was “no effect”. For the same compound, the bone architecture [4] was “no effect; also recorded: did not significantly change”, the “liver TG content” value [5] was “not increased” and the “liver bile acids levels” value [5] was “did not change”. The liver cholesterol levels [5] was “did not change”, the “liver hydroxyproline levels (liver fibrosis)” value [5] was “unchanged” and the “Abcg8 transcript level, liver” value [6] was “did not change”. For the same compound, the “Cyp7a1 transcript level, liver” value [6] was “did not change”, the “Cyp7b1 transcript level, liver” value [6] was “did not change” and the “Fas transcript level (fatty acid synthesis), liver” value [6] was “nor were the levels of transcripts associated with fatty acid synthesis (Srebp1c, Fas) (FIGS. 6B-6G) changed”. The “Hmgcr transcript level, liver” value [6] was “did not change”, the “Hp transcript level (liver inflammation)” value [6] was “unchanged” and the “Il1b transcript level (liver inflammation)” value [6] was “unchanged”. For the same compound, the “Ly6g transcript level (liver inflammation)” value [6] was “unchanged”, the “Scarb1 transcript level, liver” value [6] was “did not change” and the “Srebp1c transcript level (fatty acid synthesis), liver” value [6] was “nor were the levels of transcripts associated with fatty acid synthesis (Srebp1c, Fas) (FIGS. 6B-6G) changed”. For the same compound, the “Tnfa transcript level (liver inflammation)” value [6] was “unchanged”.
